Data reported in patent publication US20180010188A1, “METHOD FOR DETECTING NONSENSE-MEDIATED RNA DECAY” (The Regents of the University of California, priority 2016, published 2018).

Tested on: NMD and non-NMD isoforms of Srsf11, Ptbp2, Tra2b, Hnrnpl and Psd-95 (cellular NMD activity)
Experiment: RT-qPCR of endogenous NMD and non-NMD isoforms to monitor cellular NMD activity
Assay type: cell-based, mouse
Text: In our method, we measure the individual abundance of NMD-sensitive isoforms and that of their non-NMD counterparts via quantitative real-time PCR (qPCR). The NMD isoforms are first examined for differential expression between a treatment and a control condition. An increase in a NMD isoform may be due to NMD inhibition, transcriptional activation or a change in alternative splicing favoring the NMD isoform. These three scenarios can be distinguished by examining the expression of the non-NMD counterparts. Genuine NMD regulation, transcriptional activation and alternative splicing regulation would lead to no change, upregulation and down-regulation of the NMD-insensitive isoforms, respectively (FIG. 6A).
One technical difficulty of our method is designing RT-qPCR primers specific to the cassette exon-skipping isoform, whose entire sequence is contained in the inclusion isoform. To specifically detect an inclusion isoform, we designed a primer entirely annealing to the cassette exon (exon B in FIG. 1A). For the exclusion isoform, junction primers annealing to the exon-skipping junction appear to be the only choices. This can be either a reverse primer (FIG. 1A) with its 5′ portion matching the downstream constitutive exon (exon C) and its 3′ portion matching the upstream constitutive exon (exon A) or a forward primer (not shown) with its 5′ and 3′ portions matching the upstream and downstream exons, respectively. The challenge is herein illustrated with reverse primers but also applies to forward primers. Many exon-skipping junction primers are able to amplify the inclusion isoforms (FIGS. 7A-D). The longer the 3′ portion of the junction primer annealing to the upstream constitutive exon, the easier the primer amplifies the inclusion transcripts (FIG. 7B). Some exon-skipping junction primers with 3′ portions as short as six nucleotides, as we've observed, can still anneal to and detect the inclusion isoform at 55-60° C., albeit at a lower efficiency than its detection of the exclusion isoform. On the other hand, a longer 5′ portion and a shorter 3′ portion increase the possibility of the primer annealing to the exon B-exon C junction because of the sequence similarity around 5′ splice sites (FIGS. 7C-D). We therefore had to identify NMD-associated cassette exons containing a 3′ end unlike that of its upstream exon. We then screened multiple exon-skipping junction primers for one that amplified only the exclusion isoform and not the inclusion isoform. All primer pairs were tested and confirmed for their specificity, RT-qPCR efficiency and linear dynamic ranges (FIG. 10). Finally, two stably expressed housekeeping genes, Gapdh and Sdha, were used as internal controls for normalization by geometric averaging (Vandesompele et al., 2002. Genome Biol 3: RESEARCH0034).
Because our method can be used on its own can to infer NMD regulation with a low false positive rate, one of its applications is unbiased screening for changes in cellular NMD activity. We screened a small panel of widely used pharmacological inhibitors for their effects on NMD. The expression of both the NMD and non-NMD isoforms of Ptbp2, Srsf11, Tra2b, Hnrnpl and Psd-95 were simultaneously measured before and after drug treatment. When the levels of all of the NMD isoforms were altered by a chemical in the same direction, the expression of the NMD and non-NMD isoforms under the treatment and control conditions was then subjected to ANOVA analysis to determine differential regulation of the two isoforms. We were interested in drugs that affected the NMD isoforms across the board and more strongly than the non-NMD counterparts. With this criterion, we identified thapsigargin as having potent activity in blocking cellular NMD.
Neuro-2a (N2a) cells were maintained in N2a complete media consisting of L-glutamine-free Dulbecco's modified Eagle's medium (DMEM), 10% FBS and 1× GlutaMAX at 37° C. […]

[1] = N2a cells, 5 hours post-treatment

Cn1cc(-c2ccc3c(c2)CCN3C(=O)Cc2cccc(C(F)(F)F)c2)c2c(N)ncnc21 [GSK2606414]
concentration sufficient to revert the effect of thapsigargin on the NMD isoforms (N2a cells, thapsigargin plus GSK2606414, Psd-95, Ptbp2, Tra2b): ≥ 0.1 µM | upregulation of the NMD isoforms in thapsigargin-treated cells (dose-dependent, 1 hour preincubation): effectively reversed | NMD activity in DMSO-treated cells (without thapsigargin): did not affect

C/C=C(/C)C(=O)O[C@H]1C(C)=C2[C@H]([C@@H]1OC(=O)CCCCCCC)[C@@](C)(OC(C)=O)C[C@H](OC(=O)CCC)[C@@]1(O)[C@H]2OC(=O)[C@@]1(C)O [thapsigargin]
NMD repression at 0.01 μM (0.01 μM, 5 hours): little NMD repression | isoform upregulation relative to maximal upregulation (0.02 μM): about 20% | earliest time of increase of NMD isoform transcripts (0.2 μM thapsigargin, N2a cells): 1 h | increase of non-NMD isoforms of Ptbp2 and Psd-95 (0.2 μM, at 5 hours): around 1.8 fold | non-NMD isoform levels of Srsf11, Tra2b and Hnrnpl (0.2 μM, at 5 hours): barely changed | fraction of full NMD inhibition detectable (1 hour post-treatment, full inhibition at 5 hours): 20-30% | concentration at which repressive effect on NMD started to plateau (N2a cells): ≥ 0.2 µM | concentration at which Xbp1s splicing and NMD repression plateaued [1]: ≥ 0.1 | lowest concentration at which NMD inhibition was observed [1]: 0.02 µM | lowest concentration inhibiting NMD [1]: 20 nM | NMD inhibition at concentrations above 0.2 μM (above 0.2 μM (data not shown)): did not further increase NMD inhibition | NMD isoforms in siPerk-pretreated cells (thapsigargin after 48 hours siPerk): none of the NMD isoforms were stimulated
